The numbers were not newly measured in PMC4629110 (Acta Pharmaceutica Sinica. B, 2014), which cites them from elsewhere.

The data set concerns BuChE. As to conditions: read-out: IC50 BuChE reported in the literature.

SMILES strings stand for the structures.

As to `CC(C)NP(=O)(NC(C)C)OP(=O)(NC(C)C)NC(C)C` [ISO-OMPA, tetraisopropyl pyrophosphoramide], the IC50 was 980 nM.

What is called IC50 is the point on the concentration scale where inhibition reaches its midpoint.
